Measured values taken from US20250262201A1, “COMPOUNDS AND METHODS USEFUL FOR STABILIZING PHENYLALANINE HYDROXYLASE MUTATIONS” (Agios Pharmaceuticals, Inc., priority 2022, published 2025).
Where two headings read alike, the source gives them in different places.

Target: T1, human PAH with the R408W mutation (Homo sapiens, UniProt P00439, R408W)
T1 construct: expressed in transfected cells
T1 sequence (P00439 1-452 R408W): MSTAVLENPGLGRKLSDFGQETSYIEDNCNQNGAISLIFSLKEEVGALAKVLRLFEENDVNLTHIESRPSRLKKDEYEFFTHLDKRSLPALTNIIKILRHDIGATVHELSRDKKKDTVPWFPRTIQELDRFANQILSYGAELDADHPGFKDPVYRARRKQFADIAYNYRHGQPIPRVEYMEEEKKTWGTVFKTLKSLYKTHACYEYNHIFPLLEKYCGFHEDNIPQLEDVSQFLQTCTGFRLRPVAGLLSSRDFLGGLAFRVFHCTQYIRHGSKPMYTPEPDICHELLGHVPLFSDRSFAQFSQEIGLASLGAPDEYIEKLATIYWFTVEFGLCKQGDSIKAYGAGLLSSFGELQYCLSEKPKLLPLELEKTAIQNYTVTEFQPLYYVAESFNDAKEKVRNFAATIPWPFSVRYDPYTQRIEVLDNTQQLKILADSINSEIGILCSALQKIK
Assay: Cell Based Phenylalanine Flux Assay
Parameters: scale not given here

[1] = A375 R408W cells, 24 hrs with compound, then 20 μM sepiapterin and 800 μM 13C9,15N-Phenylalanine for 4 hours, 13C-Tyrosine by LC-MS, average where tested multiple times, read-out: AC50
[2] = A375 R408W cells, 24 hrs with compound, then 20 μM sepiapterin and 800 μM 13C9,15N-Phenylalanine for 4 hours, 13C-Tyrosine by LC-MS, average where tested multiple times

Row | Compound | AC50 [1] [µM] | other results
1 | O=C(c1nnc(-c2cnn(S(=O)(=O)C3CC3)c2)o1)N1CCc2[nH]cnc2[C@H]1c1cc2ccccc2cn1 | > 5 | 
2 | Cc1c(-c2nnc(C(=O)N3C[C@@H](C)c4[nH]cnc4[C@@H]3c3cc4ccccc4cn3)o2)cnn1C | 1 to 5 | 
3 | C[C@@H]1CN(C(=O)c2nnc(C3(C)CC3)o2)[C@@H](c2cc3ccccc3cn2)c2nc[nH]c21 | 1 to 5 | 
4 | Cc1nnc(CC(=O)N2CCc3[nH]cnc3C2c2cn3ccccc3n2)o1 (stereo not shown) |  | AC50 [2]: E, E
5 | Cc1ocnc1CC(=O)N1CCc2[nH]cnc2C1c1cn2ccccc2n1 (stereo not shown) |  | AC50 [2]: E, E
6 | O=C(CC1(O)CCC1)N1CCc2[nH]cnc2C1c1cn2ccccc2n1 (stereo not shown) |  | AC50 [2]: E, E
7 | O=C(c1n[nH]c2ccccc12)N1CCc2[nH]cnc2C1c1ccc2ccccc2n1 (stereo not shown) | 1 to 5 | 
8 | O=C(c1ocnc1-c1ccccn1)N1CCc2[nH]cnc2C1c1ccc2ccccc2n1 (stereo not shown) | 1 to 5 | 
9 | CN1CCN(c2nnc(C(=O)N3CCc4[nH]cnc4C3c3ccc4ccccc4n3)o2)CC1 (stereo not shown) | 1 to 5 | 
10 | Cn1ncc(C(=O)N2CCc3[nH]cnc3C2c2ccc3ccccc3n2)c1C(F)F (stereo not shown) |  | AC50: 1 to 5 µM
11 | FC(F)c1nnc(N2CCc3[nH]cnc3C2c2ccc3ccccc3n2)o1 (stereo not shown) | 1 to 5 | 
12 | O=C(c1nnc(N2CCOCC2)o1)N1CCc2[nH]cnc2C1c1ccc2ccccc2n1 (stereo not shown) | 1 to 5 | 
13 | O=C(c1ncn2ccccc12)N1CCc2[nH]cnc2C1c1ccc2ccccc2n1 (stereo not shown) | 1 to 5 | 
14 | O=C(c1cnn2ccccc12)N1CCc2[nH]cnc2C1c1ccc2ccccc2n1 (stereo not shown) | 1 to 5 | 
15 | O=C(C1CC1)N1CCc2[nH]cnc2C1c1ccc2ccccc2n1 (stereo not shown) | 1 to 5 | 
16 | O=C(Cc1cnn2ccccc12)N1CCc2[nH]cnc2C1c1ccc2ccccc2n1 (stereo not shown) | 1 to 5 | 
17 | O=C(c1cncs1)N1CCc2[nH]cnc2C1c1cc2ccccc2cn1 (stereo not shown) | > 5 | 
18 | O=C(c1ocnc1C1CC1)N1CCCc2[nH]cnc2C1c1cc2ccccc2cn1 (stereo not shown) | > 5 | 
19 | Cn1cc(-c2nc(C3CC3)c(C(=O)N3CCCc4[nH]cnc4C3c3cc4ccccc4cn3)o2)cn1 (stereo not shown) | 1 to 5 | 
20 | Cc1ncoc1C(=O)N1CCc2[nH]cnc2C1c1cc2ccccc2cn1 (stereo not shown) | 1 to 5 | 
21 | FC(F)c1nnc(N2CCc3[nH]cnc3C2c2cc3ccccc3cn2)o1 (stereo not shown) | > 5 | 
22 | O=C(c1nnc(-c2ccccn2)o1)N1CCCc2[nH]cnc2C1c1cc2ccccc2cn1 (stereo not shown) | 1 to 5 | 
23 | FC(F)(F)c1cnc(N2CCc3[nH]cnc3C2c2cc3ccccc3cn2)nc1 (stereo not shown) | 1 to 5 | 
24 | Cc1nnc(C(=O)N2CC(C)(C)c3[nH]cnc3C2c2cc3ccccc3cn2)o1 (stereo not shown) | 1 to 5 | 
25 | Nc1nc(C(F)(F)F)c(C(=O)N2CCc3[nH]cnc3C2c2cn3ccccc3n2)o1 (stereo not shown) |  | AC50 [2]: E, E
26 | CC(C)(O)c1nc(C(F)(F)F)c(C(=O)N2CCc3[nH]cnc3C2c2ccc3ccccc3n2)o1 (stereo not shown) |  | AC50 [2]: E, E
27 | Cn1ccc(-c2nc(C(F)F)c(C(=O)N3CCc4[nH]cnc4C3c3ncc4ccccc4n3)o2)n1 (stereo not shown) |  | AC50 [2]: E, E
28 | CN(C)Cc1ccc2c(C(=O)N3CC(C)(C)c4[nH]cnc4C3c3cc4ccccc4cn3)cnn2c1 (stereo not shown) | > 5 | 
29 | CN(C)Cc1ccc2c(C(=O)N3CCc4[nH]cnc4C3c3ccc4ccccc4n3)cnn2c1 (stereo not shown) | 1 to 5 | 
30 | O=C(c1ccn2ncccc12)N1CCc2[nH]cnc2C1c1ccc2ccccc2n1 (stereo not shown) | 1 to 5 | 

The next lines start with results.

Row | AC50 [1] [µM] | Compound | other results
31 | 1 to 5 | CC(C)(O)c1ccc2c(C(=O)N3CCc4[nH]cnc4C3c3ccc4ccccc4n3)cnn2c1 (stereo not shown) | 
32 | 1 to 5 | CC(C)(O)c1nc(C2CC2)c(C(=O)N2CCCc3[nH]cnc3C2c2cc3ccccc3cn2)o1 (stereo not shown) | 
33 | 1 to 5 | CC(C)(O)c1nc(C2CC2)c(C(=O)N2CCc3[nH]cnc3C2c2ccc3ccccc3n2)o1 (stereo not shown) | 
34 | 1 to 5 | Cn1nc(C(=O)N2CCc3[nH]cnc3C2c2ccc3ccccc3n2)c2ccccc21 (stereo not shown) | 
35 | > 5 | O=C(c1nsc2ccccc12)N1CCc2[nH]cnc2C1c1ccc2ccccc2n1 (stereo not shown) | 
36 | 1 to 5 | O=C(c1cnco1)N1CCc2[nH]cnc2C1c1ccc2ccccc2n1 (stereo not shown) | 
37 | 1 to 5 | CC(C)(O)c1ncc(C(=O)N2CCc3[nH]cnc3C2c2ccc3ccccc3n2)s1 (stereo not shown) | 
38 | 1 to 5 | CC(C)(O)c1ncc(C(=O)N2CCc3[nH]cnc3C2c2ccc3ccccc3n2)o1 (stereo not shown) | 
39 | 1 to 5 | Cc1ncoc1C(=O)N1CCc2[nH]cnc2C1c1ccc2ccccc2n1 (stereo not shown) | 
40 | 1 to 5 | Cc1nnc(C(=O)N2CCc3[nH]cnc3C2c2ccc3ccccc3n2)o1 (stereo not shown) | 
41 | 1 to 5 | CC(C)(F)c1ccc2c(C(=O)N3CCc4[nH]cnc4C3c3ccc4ccccc4n3)cnn2c1 (stereo not shown) | 
42 | 1 to 5 | Cc1nc(C(C)(C)F)oc1C(=O)N1CCc2[nH]cnc2C1c1cc2ccccc2cn1 (stereo not shown) | 
43 | 1 to 5 | Cc1nc(C(C)(C)C)oc1C(=O)N1CCc2[nH]cnc2C1c1cc2ccccc2cn1 (stereo not shown) | 
